From patent US20120135055A1, “Dry Powder Inhaler Formulations” (BREATH LIMITED, priority 2009, published 2012)

Assays:
[1] = Dry Sympatec PSD analysis (particle size distribution); assay type: physicochemical; conditions: pre-storage
[2] = Effect of humidity on prolonged storage (20% RH, 48 hours; DVS, DSC, TGA, PSD, SEM); assay type: physicochemical; conditions: 20% RH for 48 hours; for DSC trace, thermal behaviour of stored sample: post-humidity treatment
Experimental: In order to evaluate the effect of humidity on prolonged storage processed BDP hydrate was subjected to 20% relative humidity (RH) for 48 hours. The sample recovered after storage was analysed by DSC, TGA, PSD and SEM. In order to evaluate the effect of humidity on prolonged storage, processed BDP heptane was subjected to 20% relative humidity (RH) for 48 hours. The sample recovered after storage was analysed by DSC, TGA, PSD and SEM.

| Structure (SMILES) | Particle size distribution relative to the inhalation range [1] | DSC trace, thermal behaviour of stored sample [2] | Particle Size, cumulative distribution Q3 X10 ([2]; post-storage sample) [μ] | Particle Size, cumulative distribution Q3 X50 ([2]; post-storage sample) [μ] | Particle Size, cumulative distribution Q3 X90 ([2]; post-storage sample) [μ] | DVS mass plot, change of mass during storage [2] | Stability on prolonged storage compared with anhydrous BDP [2] |
| --- | --- | --- | --- | --- | --- | --- | --- |
| CCC(=O)OCC(=O)[C@@]1(OC(=O)CC)[C@@H](C)C[C@H]2[C@@H]3CCC4=CC(=O)C=C[C@]4(C)[C@@]3(Cl)[C@@H](O)C[C@@]21C.O [BDP heptane, beclomethasone diproprionate] | extremely promising and within the inhalation range | no variation in the thermal behaviour | 0.68 | 2.44 | 5.29 | – | – |
| CCC(=O)OCC(=O)[C@@]1(OC(=O)CC)[C@@H](C)C[C@H]2[C@@H]3CCC4=CC(=O)C=C[C@]4(C)[C@@]3(Cl)[C@@H](O)C[C@@]21C.O [BDP hydrate, beclomethasone diproprionate] | well within the inhalation range | no variation in the thermal behaviour | – | 1.37 | 2.95 | considerable weight loss due to partial dehydration | higher stability on prolonged storage than anhydrous BDP |
